Experimental findings from US8395037B2, “Pharmaceutical compositions for treating/preventing motor organ diseases” (Mitsubishi Corporation, priority 2005, dated 2013) are described below.

Data set [1] relates to MMP-1. The data set is described as follows: MMP-1 production in cultured chondrocytes treated with cartilage degenerating factor (ELISA). Conditions: for Production of MMP-1: IL-1β or H2O2 treated chondrocytes, 50 or 100 μM, 24 h. Format: cell-based, human. On the procedure: (§1) Chondrocytes isolated from human articular cartilage tissues were used for cultured cells. After obtaining informed consent, cartilage tissues were collected from surgically-removed tissues from eight osteoarthritis patients. The collected tissues were sliced and then treated in a liquid low-glucose Dulbecco's modified Eagle's medium (DMEM, manufactured by Gibco Co.) containing 1.5 mg/ml collagenase B at 37° C. overnight, to isolate chondrocytes for culture. The cells were normally cultured in a culture flask (culture area: 25 cm^2), and in a polystyrene culture dish (diameter: 6 cm) for use in the experiments. […]
(§2) Influence of hydroxylated C60 fullerene on cartilage matrix-degrading enzyme production which is enhanced by cartilage catabolism inducers was analyzed using the enzyme-linked immunoassay (ELISA) method.
(§3) Chondrocytes that had been isolated and cultured by the above method (1) were subjected to two passage cultures. […] After a 24 hour incubation, the culture supernatant was collected, and the concentrations of cartilage matrix-degrading enzymes, matrix metalloprotease (MMP)-1, 3, and 13, were measured.
(§4) The concentrations of MMP-1, MMP-3, and MMP-13 in the culture supernatant were determined using ELISA kits (kits for MMP-1 and MMP-3, manufactured by R&D Co.; and a kit for MMP-13, manufactured by Amersham), which is the standard technique currently known in the art. […] 100 μl of 1.5 N H3PO4 was added to each well to stop the color reaction, and the absorbance at 450 nm was measured using a microtiter plate reader. According to the instructions provided by the manufacturer, the measured concentrations were calibrated using a lyophilized control reagent.
A general note: An ELISA detects its analyte on a solid surface through an enzyme-linked reagent.

The subject of data set [2] is MMP-3. The data set is described as follows: MMP-3 production in cultured chondrocytes treated with cartilage degenerating factor (ELISA). It counts as cell-based, human. Conditions: for Production of MMP-3: IL-1β or H2O2 treated chondrocytes, 50 or 100 μM, 24 h. On the procedure:
as §1, §2, §3, §4

Data set [3] relates to proteoglycan. The data set is described as follows: Cartilage matrix (proteoglycan) production in cultured chondrocytes (ELISA). Conditions: for Cartilage matrix (proteoglycan)-synthesizing ability: decreased by IL-1β or H2O2, 50 and 100 μM, 24 h. Format: cell-based, human. On the procedure: Chondrocytes isolated from human articular cartilage tissues were used for cultured cells. After obtaining informed consent, cartilage tissues were collected from surgically-removed tissues from eight osteoarthritis patients. The collected tissues were sliced and then treated in a liquid low-glucose Dulbecco's modified Eagle's medium (DMEM, manufactured by Gibco Co.) containing 1.5 mg/ml collagenase B at 37° C. overnight, to isolate chondrocytes for culture. The cells were normally cultured in a culture flask (culture area: 25 cm^2), and in a polystyrene culture dish (diameter: 6 cm) for use in the experiments. The cell culture was performed using a DMEM medium added with inactivated fetal bovine serum (FBS, manufactured by TRACE Co.) at 10% volume of the medium, and also 2 mM L-glutamine, 25 mM HEPES, and penicillin and streptomycin at 100 units/ml, in either a CO2 incubator (normoxic condition) which was set at 5% CO2+95% air, or a low oxygen chamber (hypoxic condition) which was set at 1% O2+5% CO2+94% N2, at 37° C. under saturated humidity.
Influence of hydroxylated 60 fullerene on cartilage matrix (proteoglycan or type II collagen) production ability decreased by cartilage catabolism inducers was analyzed using ELISA.
Chondrocytes that had been isolated and cultured by the above method (1) were subjected to two secondary cultures. Then, these cells in a subconfluent state were disseminated into a 24 well-culture plate at 1×10^5 cells/well. After incubation for 12 hours, the wells were washed with PBS and the medium was replaced with a fresh 10% FBS-containing DMEM. […]
The production quantities (concentrations) of the cartilage matrix (proteoglycan and type II collagen) in the culture supernatant were determined using ELISA kits (a kit for proteoglycan, manufactured by BioSource; and a kit for type II collagen, manufactured by Chondrex, Inc.), which is the standard technique currently known in the art.

Data set [4] concerns proteoglycan. The data set is described as follows: Proteoglycan production in cultured chondrocytes (western blotting). It counts as cell-based, human. Particulars: chondrocytes treated with cartilage degenerating factors. On the procedure:
Chondrocytes prepared according to the above method and chondrocytes of the control groups were collected with a cell scraper, and centrifuged to remove the supernatant. Then, 0.5% Triton X-100 aqueous solution was added thereto, and ultrasonic disintegration was performed on ice for one minute, to obtain a protein extract. The concentrations of the respective protein solutions were measured, and each sample was placed on 5% to 10% gradient SDS-polyacrylamide electrophoresis gel at 100 ng/lane, and subjected to electrophoresis.
Proteins in the gel were transferred onto a polyvinylidene difluoride membrane (manufactured by Pharmacia Co.) using a semidry blotting apparatus (manufactured by Amersham). The membrane was blocked with 5% skim milk (manufactured by Morinaga Co.), and then treated with 5 μg/ml of anti-proteoglycan monoclonal antibodies (manufactured by Chemicon Co.) at room temperature for one hour. The membrane was washed with PBS containing 0.01% Tween-20 (hereunder, abbreviated as “TPBS”), and then treated with 5,000-fold-diluted peroxidase-labeled anti-mouse IgG antibodies (manufactured by Amersham) as secondary antibodies, at room temperature for one hour. […]

In data set [5] the test system is osteoarthritis model rabbits.
Experimental: Osteoarthritis animal model was prepared according to a general method. NZW-strain male rabbits (2 to 2.5 kg, purchased from Kitayama Labes Co.) were habituated for about one week, and both knee joint sites were shaved and disinfected with an iodine antiseptic agent under anesthesia with a combined administration of ketamine hydrochloride and xylazine (intramuscular administration, or intravenous administration if the anesthetic effect was low). The epidermis inside the knee joints was incised to expose the anterior cruciate ligament and medial collateral ligament, which were then cut out. After confirming and incising the articular capsule, the medial meniscus was exposed and totally extracted. Tissues around the articular capsule, patellar tendon, and epidermis were sutured thereafter. At the time of suturing, the operated site was washed with a physiological salt solution containing an antibiotic (injectable Viccillin, Meiji Seika) (500 mg (titer) as ampicillin sodium/20.0 ml of physiological saline solution).
From the postoperative first week, 2.0 ml of a hydroxylated C60 fullerene solution (100 μM, adjusted with the solvent polyethylene glycol) was injected into the right knee joint cavity, and 2.0 ml of solvent alone was injected into the left knee joint cavity, using a 23-gauge injection needle intraarticularly twice a week. […] Thickness of the degenerated cartilage layer and the number of chondrocytes in the degenerated cartilage layer were measured. The thickness of the degenerated cartilage layer was expressed as a relative value assuming that the immediate postoperative thickness (zeroth week) was 100%.
Moreover, proteoglycan content decrease in articular cartilage involved with cartilage degeneration was evaluated by safranin O staining. The evaluation result was expressed as an area ratio (%) to immediate postoperative proteoglycan-stained area.

As for hydroxylated C60 fullerene, the “Production of MMP-1” value is “inhibited in all cases” in data set [1] and “decreased the amount of MMP-1 produced” in data set [1] (listed as fullerene). The “Inhibitory effect on production of MMP-1” value in data set [1] (hypoxic condition) was “also observed”. In addition, the “Production of MMP-3” value is recorded as “inhibited in all cases” in data set [2] and “decreased the amount of MMP-3 produced” in data set [2] (listed as fullerene). For the same substance, the “Inhibitory effect on production of MMP-3” value in data set [2] (hypoxic condition) was “also observed”. The “Cartilage matrix (proteoglycan)-synthesizing ability” value is on record as “restored cartilage matrix synthesis” in data set [3] and “able to restore the decreased synthesizing ability” in data set [3] (listed as hydroxylated 60 fullerene). In addition, the Proteoglycan synthesizing ability result in data set [3] (fullerene alone, versus control groups) was “increased as compared to that of the control groups”. For the same substance, the “Production of proteoglycan (western blotting)” value in data set [4] is recorded as “the inhibition against the production of cartilage matrix, proteoglycan, due to the cartilage degenerating factors was inhibited”; in data set [4] (listed as fullerene) it was “restored”. For the same substance, the “Chondrocytes and cartilage matrix, histology” value in data set [5] (100 μM, 2.0 ml intraarticular twice a week, postoperative sixth and eighth week) is recorded as “histologically maintained”. Besides, the “Degeneration of the knee joint cartilage tissue” value in data set [5] (100 μM, 2.0 ml intraarticular twice a week, versus solvent alone) is “mild”. The “Swelling/flare in articular local parts, influence on systemic condition” value in data set [5] (rabbit, in vivo) is “neither swelling/flare in articular local parts nor influence on systemic condition was observed”.
